Experimental findings from publication PMC4982898, “Molecular Design, Structural Analysis and Antifungal Activity of Derivatives of Peptide CGA-N46” (Interdisciplinary Sciences, Computational Life Sciences, 2016) are described below.

What all share (type): cell-based
In data set [1] the test system is Human red blood cells (RBCs). On the procedure:
Hemolytic activity was tested according to the method. Briefly, peptides were serially twofold diluted using PBS in 96-well plates to give a volume of 100 μL of the sample solution in each well, and the final concentration of peptides ranged between 2.0 mg mL^−1 and 3.9 μg mL^−1. Human red blood cells (RBCs) from a healthy volunteer were diluted to a concentration of 2 % in PBS. 100 μL of the RBC suspension was added to each well, and the reactions were incubated at 37 °C for 60 min, followed by 150 μL supernatant being transferred to a new 96-well plate (U-shaped well). The release of hemoglobin was determined by measuring the absorbance of the supernatant at 570 nm. RBCs in PBS and 0.1 % (v/v) Triton-X100 were used as the negative and positive controls, respectively. The percentage of hemolysis was calculated using the following formula: Hemolysis rate%=[(OD570of the treated sample-OD570of the negative control)/OD570of the positive control-OD570of the negative control]×100%. Each test was performed in triplicate, and the data were expressed as the mean ± SE.

Data set [2] concerns Candida tropicalis (ATCC-20240). In words: Antifungal MIC, broth microdilution with MTT. The note with it: most sensitive yeast. On the procedure:
(§1) Candida glabrata (ATCC-90525), Candida parapsilosis (ATCC-20224), Candida krusei (ATCC-6258), Candida tropicalis (ATCC-20240), Candida albicans (ATCC-2048) were supplied by the Chinese Academy of Medical Sciences.
(§2) Minimum inhibitory concentrations (MICs) of CGA-N46 and its derivatives against fungi were measured according to a modified version of broth microdilution method of the Clinical and Laboratory Standards Institute (CLSI). Fungi cell’s viability was assessed based on the reduction of 3-[4,5-dimethylthiazolyl]-2,5-diphenyltetrazolium bromide (MTT) into formazan dye by active mitochondria. Briefly, peptides were serially twofold diluted in 20 mM PBS (pH 6.0) to a final concentration between 2 mg mL^−1 and 3.9 µg mL^−1. Subsequently, 100 μL samples was dispensed into the wells of a 96-U-shaped-well plate, and each was mixed with 100 μL of the 2 × inoculum suspension (1–5 × 10^4 CFU mL^−1) of a log-phase fungal culture in Sabouraud (SD) broth. Strains without treatment with peptides were used as negative control. The cultures were incubated at 30 °C without agitation for 16 h. 10 μL of MTT solution (5 mg mL^−1 MTT in PBS) was added to each well, and the plate was further incubated for 4 h. After rinsed, 100 μL of dimethylsulfoxide (DMSO) was added to dissolve the MTT formazan crystals. The inhibition of growth was determined by measuring the absorbance at 570 nm with a microplate reader. The relative cellular activity was calculated according to the following formula: cell survival inhibition rate (\% of control)= [(OD570of the negative sample-OD570of the treated sample) / OD570of the negative control]×100\%.
(§3) Each test was performed in triplicate, and the data were expressed as the mean ± SE.

Data set [3] concerns Candida krusei (ATCC-6258). Kind of data set: Antifungal MIC, broth microdilution with MTT. The note with it: most sensitive yeast. On the procedure: as §1, §2, §3
In data set [4] the test system is Candida albicans (ATCC-2048). In words: Antifungal MIC, broth microdilution with MTT. As to conditions: most sensitive yeast. On the procedure:
as §1, §2, §3

Data set [5] relates to Candida glabrata (ATCC-90525). In words: Antifungal MIC, broth microdilution with MTT. As to conditions: most sensitive yeast. On the procedure: as §1, §2, §3

As for “H-ALQGAKERAHQQ-OH [CGA-N12, NH2–ALQGAKERAHQQ–COOH]”, in data set [1], the “5 % Hemolysis” value is 0.39 mmol/L and the “hemolytic activity (in words)” value is on record as “weak hemolytic activity at the concentration of MIC”. Besides, the “MIC C. tropicalis” value in data set [2] was 75 µM.

With “H-ERILSILRHQNLLKE-OH [CGA-N15, NH2–ERILSILRHQNLLKE–COOH]”, in data set [1], the “5 % Hemolysis” value is 0.031 mmol/L and the “hemolytic activity (in words)” value was “strong hemolytic activity”. The “MIC C. tropicalis” value in data set [2] was found to be 73 µM.

As for “H-GAKERAHQ-OH [CGA-N8, NH2–GAKERAHQ–COOH]”, in data set [1], the “5 % Hemolysis” value was 0.27 mmol/L and the “hemolytic activity (in words)” value is given as “MIC was near the concentration of its 5 % hemolysis”. Moreover, the “MIC C. krusei” value in data set [3] turned out to be 240 µM. In addition, in data set [4], the “MIC C. albicans” value is 240 µM.

For the substance “H-LQDLALQGAKERAHQQ-OH [CGA-N16, NH2–LQDLALQGAKERAHQQ–COOH]”, in data set [1], the “5 % Hemolysis” value is 0.056 mmol/L and the “hemolytic activity (in words)” value is “strong hemolytic activity”. For the same substance, the “MIC C. glabrata” value in data set [5] turned out to be 280 µM.

Take “H-PMPVSQECFETLRGHERILSILRHQNLLKELQDLALQGAKERAHQQ-OH [CGA-N46]”: in data set [1], the “5 % Hemolysis” value came out at 0.74 mmol/L and the “hemolytic activity (in words)” value is listed as “weak hemolytic activity at the concentration of MIC”.
